According to ChEMBL document CHEMBL3861993, “Alternative core development around the tetracyclic indole class of HCV NS5A inhibitors” (Bioorg Med Chem Lett, 2016):

Experiments:
[1] = system: Hepatitis C virus subtype 1a; assay: Inhibition of HCV genotype 1a NS5A after 3 day incubation by RT-PCR-cell-based HCV replicon assay
[2] = system: Hepatitis C virus subtype 2b; assay: Inhibition of HCV genotype 2b NS5A harboring methionine at position 31 after 3 day incubation by RT-PCR-cell-based HCV replicon assay
[3] = system: T1, Nonstructural protein 5A (Hepatitis C virus), Q5L478 [Y93H]; assay: Inhibition of HCV genotype 1a NS5A Y93H mutant after 3 day incubation by RT-PCR-cell-based HCV replicon assay; details: Hepatitis C virus subtype 1a
T1 sequence (whole entry): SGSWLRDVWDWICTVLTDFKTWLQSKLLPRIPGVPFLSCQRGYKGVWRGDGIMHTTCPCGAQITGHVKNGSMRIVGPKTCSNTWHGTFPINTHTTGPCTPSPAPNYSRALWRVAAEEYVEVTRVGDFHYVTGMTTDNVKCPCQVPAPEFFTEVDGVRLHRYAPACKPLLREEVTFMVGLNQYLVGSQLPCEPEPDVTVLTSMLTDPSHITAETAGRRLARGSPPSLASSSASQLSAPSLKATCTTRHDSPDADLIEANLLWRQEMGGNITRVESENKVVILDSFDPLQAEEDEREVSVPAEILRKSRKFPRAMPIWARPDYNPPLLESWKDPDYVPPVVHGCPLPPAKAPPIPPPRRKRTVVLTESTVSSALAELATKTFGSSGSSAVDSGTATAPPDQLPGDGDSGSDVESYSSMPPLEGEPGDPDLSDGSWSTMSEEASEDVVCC

[4] = system: Nonstructural protein 5A (Hepatitis C virus), Q5L478 [UNDEFINED MUTATION]; assay: Inhibition of HCV genotype 1a NS5A L31V mutant after 3 day incubation by RT-PCR-cell-based HCV replicon assay; details: Hepatitis C virus subtype 1a
[5] = system: Hepatitis C virus subtype 3a; assay: Inhibition of HCV genotype 3a NS5A after 3 day incubation by RT-PCR-cell-based HCV replicon assay
[6] = system: Hepatitis C virus subtype 4a; assay: Inhibition of HCV genotype 4a NS5A after 3 day incubation by RT-PCR-cell-based HCV replicon assay
[7] = AUC in rat at 10 mg/kg, po; type: ADME, organism-based; details: in vivo
[8] = Half life in rat at 2 mg/kg, iv or 10 mg/kg, po; type: ADME, organism-based; details: in vivo
[9] = Oral bioavailability in rat at 10 mg/kg; type: ADME, organism-based; details: in vivo
[10] = Cmax in rat at 2 mg/kg, iv or 10 mg/kg, po; type: ADME, organism-based; details: in vivo
[11] = Clearance in rat at 2 mg/kg, iv or 10 mg/kg, po; type: ADME, organism-based; details: in vivo
[12] = AUC in rat at 3 mg/kg, iv or 10 mg/kg, po; type: ADME, organism-based; details: in vivo
[13] = Half life in rat at 2.5 mg/kg, iv or 5 mg/kg, po; type: ADME, organism-based; details: in vivo
[14] = Oral bioavailability in rat at 5 mg/kg; type: ADME, organism-based; details: in vivo
[15] = AUC in rat at 5 mg/kg, po; type: ADME, organism-based; details: in vivo
[16] = Clearance in rat at 2.5 mg/kg, iv or 5 mg/kg, po; type: ADME, organism-based; details: in vivo
[17] = Cmax in rat at 2.5 mg/kg, iv or 5 mg/kg, po; type: ADME, organism-based; details: in vivo

SMILES | EC90 [1] [nM] | EC90 [2] [nM] | EC90 [3] [nM] | EC90 [4] [nM] | EC90 [5] [nM] | EC90 [6] [nM] | AUC [7] [µM·h] | half-life [8] [h] | bioavailability [9] [%] | Cmax [10] [nM] | clearance [11] [mL/min/kg] | AUC [12] [µM·h] | half-life [13] [h] | bioavailability [14] [%] | AUC [15] [µM·h] | clearance [16] [mL/min/kg] | Cmax [17] [nM]
COC(=O)N[C@H](C(=O)N1CCC[C@H]1c1ncc(-c2ccc3c(c2)OC(C)C2=C3COc3cc(-c4cnc([C@@H]5CCCN5C(=O)[C@@H](NC(=O)OC)C(C)C)[nH]4)ccc32)[nH]1)C(C)C (stereo not given in full) | 0.028 | 28.1 | 55.1 | 1.52 | – | – | – | – | – | – | – | – | – | – | – | – | –
COC(=O)N[C@H](C(=O)N1CCC[C@H]1c1nc(-c2ccc3c(c2)O[C@@H](c2ccccc2)n2c-3cc3cc(-c4c[nH]c([C@@H]5CCCN5C(=O)[C@@H](NC(=O)OC)C(C)C)n4)ccc32)c[nH]1)C(C)C | 0.006 | 11 | – | – | 0.12 | 0.016 | – | – | – | – | – | – | – | – | – | – | –
COC(=O)N[C@H](C(=O)N1CCC[C@H]1c1ncc(-c2ccc3c(c2)OCC2=C3COc3cc(-c4cnc([C@@H]5CCCN5C(=O)[C@@H](NC(=O)OC)C(C)C)[nH]4)ccc32)[nH]1)C(C)C | 0.01 | 24.7 | > 100 | 0.33 | > 1 | 0.18 | 5.57 | 2.7 | 14 | 660 | 5.3 | – | – | – | – | – | –
COC(=O)N[C@H](C(=O)N1CCC[C@H]1c1ncc(-c2ccc3c(c2)Oc2ccc(-c4cnc([C@@H]5CCCN5C(=O)[C@@H](NC(=O)OC)C(C)C)[nH]4)c4ccn-3c24)[nH]1)C(C)C | 0.06 | – | 122 | 90.2 | 0.69 | 0.31 | – | – | – | – | – | – | – | – | – | – | –
COC(=O)N[C@H](C(=O)N1CCC[C@H]1c1ncc(-c2ccc3c(c2)Oc2ccc(-c4cnc([C@@H]5CCCN5C(=O)[C@@H](NC(=O)OC)C(C)C)[nH]4)c4c2N3CCO4)[nH]1)C(C)C | 0.005 | 100 | 361 | 100 | 4.69 | 2.48 | – | – | – | – | – | – | – | – | – | – | –
COC(=O)N[C@H](C(=O)N1CCC[C@H]1c1ncc(-c2cc3c4c(c2)CCc2cc(-c5cnc([C@@H]6CC(F)(F)CN6C(=O)[C@@H](NC(=O)OC)C(C)C)[nH]5)cc(c2-4)CC3)[nH]1)C(C)C | 0.07 | > 100 | 30.2 | 20.7 | > 10 | 0.6 | – | – | – | – | – | – | – | – | – | – | –
COC(=O)N[C@H](C(=O)N1CCC[C@H]1c1ncc(-c2ccc3c(c2)OCc2c-3c(=O)oc3cc(-c4cnc([C@@H]5CCCN5C(=O)[C@@H](NC(=O)OC)C(C)C)[nH]4)ccc23)[nH]1)C(C)C | 0.01 | 113 | > 50 | 58.6 | > 1 | 0.18 | – | – | – | – | – | – | – | – | – | – | –
COC(=O)N[C@H](C(=O)N1CCC[C@H]1c1ncc(-c2cc3c4c(c2)CCc2cc(-c5cnc([C@@H]6CCCN6C(=O)[C@@H](NC(=O)OC)C(C)C)[nH]5)cc(c2-4)CC3)[nH]1)C(C)C | 0.05 | > 100 | 57 | 18.9 | 2 | 0.8 | – | – | – | – | – | – | – | – | – | – | –
COC(=O)N[C@H](C(=O)N1CCC[C@H]1c1ncc(-c2ccc3c(c2)OC(C2CC2)C2=C3COc3cc(-c4cnc([C@@H]5CCCN5C(=O)[C@@H](NC(=O)OC)C(C)C)[nH]4)ccc32)[nH]1)C(C)C (stereo not given in full) | 0.063 | 5.2 | 41 | 1.7 | 10.7 | – | – | – | – | – | – | – | – | – | – | – | –
COC(=O)N[C@H](C(=O)N1CCC[C@H]1c1ncc(-c2ccc3c(c2)Oc2ccc(-c4cnc([C@@H]5CC(F)(F)CN5C(=O)[C@@H](NC(=O)OC)C(C)C)[nH]4)c4ccn-3c24)[nH]1)C(C)C | 0.02 | 342 | 22 | 17.2 | – | – | – | – | 15 | – | – | 3.98 | – | – | – | – | –
COC(=O)N[C@H](C(=O)N1CCC[C@H]1c1ncc(-c2ccc3c(c2)Oc2ccc(-c4cnc([C@@H]5CCCN5C(=O)[C@@H](NC(=O)OC)C(C)C)[nH]4)c4cnn-3c24)[nH]1)C(C)C | 0.04 | 100 | 124 | 62.3 | 1.59 | 0.76 | – | – | – | – | – | – | – | – | – | – | –
COC(=O)N[C@H](C(=O)N1CCC[C@H]1c1ncc(-c2ccc3c(c2)OCn2c-3cc3cc(-c4cnc([C@@H]5CCCN5C(=O)[C@@H](NC(=O)OC)C(C)C)[nH]4)ccc32)[nH]1)C(C)C | 0.02 | 75.7 | > 100 | 6.5 | > 1 | 0.18 | – | – | – | – | – | – | – | – | – | – | –
COC(=O)N[C@H](C(=O)N1CCC[C@H]1c1ncc(-c2ccc3c(c2)Oc2ccc(-c4cnc([C@@H]5CCCN5C(=O)[C@@H](NC(=O)OC)C(C)C)[nH]4)c4occ-3c24)[nH]1)C(C)C | 0.03 | 100 | 132 | 100 | 0.32 | 0.31 | – | – | – | – | – | – | 1.9 | 34 | 4.28 | 8.5 | 830
COC(=O)N[C@H](C(=O)N1CCC[C@H]1c1ncc(-c2ccc3c(c2)OC(c2cccc(OC)c2)C2=C3COc3cc(-c4cnc([C@@H]5CCCN5C(=O)[C@@H](NC(=O)OC)C(C)C)[nH]4)ccc32)[nH]1)C(C)C (stereo not given in full) | 0.039 | 4.7 | 12 | 0.3 | 1.93 | – | – | – | – | – | – | – | – | – | – | – | –
COC(=O)N[C@H](C(=O)N1CCC[C@H]1c1ncc(-c2ccc3c(c2)Oc2ccc(-c4cnc([C@@H]5CCCN5C(=O)[C@@H](NC(=O)OC)C(C)C)[nH]4)c4c2N3CC4)[nH]1)C(C)C | > 0.1 | – | 685 | 100 | 4.42 | 8.17 | – | – | – | – | – | – | – | – | – | – | –
COC(=O)N[C@H](C(=O)N1CCC[C@H]1c1ncc(-c2ccc3c(c2)OC(c2ccccc2)C2=C3COc3cc(-c4cnc([C@@H]5CCCN5C(=O)[C@@H](NC(=O)OC)C(C)C)[nH]4)ccc32)[nH]1)C(C)C (stereo not given in full) | 0.017 | 8.46 | > 100 | 0.28 | 0.56 | 0.17 | – | – | – | – | – | – | – | – | – | – | –
COC(=O)N[C@H](C(=O)N1CCC[C@H]1c1ncc(-c2ccc3c(c2)Oc2ccc(-c4cnc([C@@H]5CCCN5C(=O)[C@@H](NC(=O)OC)C(C)C)[nH]4)c4c2N3CCC4)[nH]1)C(C)C | > 0.1 | 100 | 441 | 100 | > 10 | 4.81 | – | – | – | – | – | – | – | – | – | – | –
COC(=O)N[C@H](C(=O)N1CCC[C@H]1c1ncc(-c2cc3c4c(c2)CCc2cc(-c5cnc([C@@H]6C[C@@H](F)CN6C(=O)[C@@H](NC(=O)OC)C(C)C)[nH]5)cc(c2-4)CC3)[nH]1)C(C)C | 0.052 | > 100 | 22.7 | 26.2 | 6 | 5.5 | – | – | – | – | – | – | – | – | – | – | –
